Read-outs that look alike come from different tables or passages of the source. Values belong to the compound of their own block, whether it stands above or below them.
Experiments:
[1] = test system: mouse (MBT2) bladder cancer cells; test: MTT dye reduction cell viability assay on MBT2 cells; format: cell-based
Protocol: (§1) The cytotoxic effects of tachpyr on mouse (MBT2) and human (T24) bladder cancer cells were evaluated in vitro, and compared to normal human fibroblasts (MRC-5). MBT2 cells were provided by Dr. L. Lattime (Thomas Jefferson University, Philadelphia, Pa.), while MRC-5 cells were a gift of H. Blau (Standford University, Standford, Calif.). T24 cells were obtained from ATTC (Rockville, Md.). Cells were grown in RPMI (MBT2) or DME medium (T24 and MRC-5) containing 10% fetal bovine serum in a humidified chamber containing 5% CO2. 5×10^3 cells were plated into 96-well tissue culture dishes, and permitted to attach overnight. Test compounds were then added, with six replicate cultures used for each point.
After 72 hours, cell viability was assessed using an MTT dye reduction assay [Mosmann, T., J. Immunol. Meth. 65:55 (1983)]. The MTT assay is widely used to measure drug effects on cell viability. [see Richardson, D., Blood 86:4295 (1995); Brüggerman, S., Cancer Res. 57:2676 (1997); and Silber, R., Blood 84:3440 (1994)]. Specifically, (3-(4,5-dimethylthiazol-2-yl)-2,5-diphenyl tetraxolium bromide was added to the medium, and the formation of a reduced product was assayed by measuring the optical density at 560/650 nm after 3 hours. Color formation was considered proportional to viable cell numbers. IC50 was defined as the concentration required to inhibit viability by 50%, and was calculated using the Multiple Drug-effect Analysis Program (Biosoft).
MBT2 cells were then incubated with 150 μM (dfo) or 25 μM tachpyr for various lengths of time, and survival was then measured using the MTT assay described above. Viability at time 0 was defined as 100%. […] Rather, cytotoxicity was delayed by approximately 24 hours, paralleling the cytotoxic time course of desferioxamine.
The metal complexes of tachpyr were prepared as disclosed in Example 3, and their effects on MBT2 cells were compared to those of tachpyr after 72 hours using the MTT assay referenced in Example 8.

[2] = test system: human (T24) bladder cancer cells; test: MTT dye reduction cell viability assay on T24 cells; format: cell-based; settings: cell type T24, 72 hours, read-out: IC50(μM) of Tachpyr
Protocol: as §1
(§2) After 72 hours, cell viability was assessed using an MTT dye reduction assay [Mosmann, T., J. Immunol. Meth. 65:55 (1983)]. The MTT assay is widely used to measure drug effects on cell viability. [see Richardson, D., Blood 86:4295 (1995); Brüggerman, S., Cancer Res. 57:2676 (1997); and Silber, R., Blood 84:3440 (1994)]. […]

[3] = test system: normal human fibroblasts (MRC-5); test: MTT dye reduction cell viability assay on MRC-5 cells; format: cell-based; settings: cell type MRC-5, 72 hours, read-out: IC50(μM) of Tachpyr
Protocol: as §1, §2

[4] = test system: breast cancer cell lines; test: Cytotoxicity to breast cancer cell lines; format: cell-based
[5] = test system: MBT2 or T24 cultured bladder cancer cells; test: Cytotoxicity toward cultured bladder tumor cells; format: cell-based; settings: cultured human and mouse bladder tumor cells
Protocol: as §1, §2

[6] = test system: ferritin synthesis; test: Ferritin synthesis (35S labeling, immunoprecipitation, SDS PAGE); format: cell-based; settings: 20 μM tachpyr, 16 hours
Protocol: Ferritin is a major iron storage protein whose synthesis is dependent upon intracellular concentrations of iron. To examine the role of tachpyr in the chelation of intracellular iron, the influence of tachpyr on ferritin synthesis was examined. Cells were exposed for either 7 or 16 hours to media containing either no additions, 20 μM tachpyr, 150 μM desferioxamine or 200 μM ferric nitrolotriacetate. During the last two hours of incubation, cells were metabolically labeled with S-translabel (ICN) and ferritin visualized by immunoprecipitation and SDS PAGE [Torti, S. et al.,J. Biol. Chem. 263:12638 (1988).]

[7] = test system: RAW 264.7 cells; test: Apoptosis: DNA fragmentation by agarose gel electrophoresis; format: cell-based; settings: 25 μM, 0, 6, 12 and 20 hours
Excerpt: Apoptosis, or “programmed cell death,” is a process initiated by many anti-cancer agents. Pathways of apoptosis involve complex intracellular changes, including the action of intracellular proteases (caspases), release of cytochrome C, mitochondrial changes, nuclear condensation and fragmentation, and ultimately cell death. A hallmark of apoptotic cell death is the appearance of “DNA ladders”: DNA cleaved at […] regions to generate a series of DNA fragments that can be visualized using agarose gel electrophoresis. In order to determine whether tachpyr triggers apoptotic pathways, DNA was isolated from RAW 264.7 cells that had been treated with 25 μM tachpyr for 0, 6, 12 and 20 hours. DNA was also isolated from cells treated for 7 hours with 50 μM cisplatin or 500 μM etoposide (VP16). Cisplatin and etoposide are DNA damaging agents that are currently used in cancer therapy and are known to induce apoptosis. They served as positive controls. We compared the effects of tachpyr, VP16 and cisplatin on DNA fragmentation using agarose gel electrophoresis. […] Thus, cytotoxic pathways elicited by tachpyr are similar to those evoked by classic anti-cancer agents, and are consistent with its contemplated use as a chemotherapeutic agent.

[8] = test system: MBT2 cells; test: Clonogenic assay; format: cell-based, mouse; settings: 72 hours with tachpyr, colonies grown seven days
Protocol: Cell viability was also-assessed using a clonogenic assay, which measures the ability of cells to divide and form visible colonies of about 50 or more cells. Replicate plates were exposed to various concentrations of tachpyr added to the growth medium. Control cells received no tachpyr. At the end of the incubation period, the surviving cells were trypsinized, diluted, and re-plated in growth medium without tachpyr. Colonies were permitted to grow for seven days. The growth medium was then removed, and plates were fixed with 0.5% gluteraldehyde, stained with 1% crystal violet, and then counted.

[9] = test system: cell culture; test: Preliminary cell culture experiments comparing toxicity of tachpyr with tachpn; format: cell-based
Excerpt: In order to further explore the hypothesis that oxidative dehydrogenation is involved in chelator toxicity, the tach-based chelator with three N-propyleneamino arms (termed tachpn, Scheme 4 as shown in FIG. 3) has been studied. Tachpn is distinguished from tachpyr in having the —C(H)(CH3)(NH2) fragment in place of the pyridine ring. The α-hydrogens of tachpn are sterically hindered, relative to tachpyr, by the methyl group in the β position, so that tachpn may have a lower propensity toward α-hydrogen abstraction. Further, the pseudo-benzylic H^a of tachpyr would also have a potentially greater tendency to be abstracted, as compared to tachpn, on electronic grounds [see March, J., Advanced Organic Chemistry. McGraw-Hill, pp 914 ff) The considerations would imply that tachpn is less able than tachpyr to undergo oxidative dehydrogenation and to reduce Fe(III). Preliminary cell culture experiments were conducted to compare the toxicity of tachpyr with tachpn (FIG. 3).

[10] = Richardson, D., Blood 86:4295 (1995); cited from earlier work
[11] = test system: tumor cells; settings: background statement; cited from earlier work
[12] = test system: tumor cells

Compound: [Cl-].[Cl-].[Mg+2].c1ccc(CNC2CC(NCc3ccccn3)CC(NCc3ccccn3)C2)nc1 (centres unmarked) [MG(II) complex of tachpyr]
cytotoxicity (in words) ([1]; MBT2 cells, 72 hours, MTT): toxic

IC50 [2]: 4.3 µM
IC50 ([1]; MBT2 cells, 72 hours, MTT, single experiment of FIG. 8, read-out: calculated IC50 from FIG. 8 data): 3.6 µM
IC50 ([1]; MBT2 cells, 72 hours, MTT, tachpyr: average of four independent experiments ± standard error, read-out: IC50): 4.6 ± 2 µM
IC50 ([1]; Table I, cell type MBT2, read-out: IC50(μM) of Tachpyr): 2.2 µM
Compound: c1ccc(CNC2CC(NCc3ccccn3)CC(NCc3ccccn3)C2)nc1 (centres unmarked) [tachpyr]
IC50 [3]: 30.5 µM
cytotoxicity (in words) [4]: cytotoxic
delay of cytotoxicity ([1]; MBT2 cells, 25 μM tachpyr, time course, MTT): approximately 24 hours
cytotoxicity (in words) ([1]; MBT2 cells, 72 hours, MTT): cytotoxic
toxicity (in words) [5]: extremely toxic
ferritin synthesis [6]: repressed
DNA fragmentation (DNA ladders) [7]: clearly induced DNA fragmentation
colony formation [8]: inhibited colony formation

Compound: CC(N)CNC1CC(NCC(C)N)CC(NCC(C)N)C1 (centres unmarked) [tachpn]
IC50 ([9]; preliminary cell culture experiments, cell line not stated): ~80 µM
decrease in toxicity relative to tachpyr ([9]; ratio of IC50 values): 17 fold

Compound: [O-][Cl+3]([O-])([O-])[O-].[O-][Cl+3]([O-])([O-])[O-].[Zn+2].c1ccc(CNC2CC(NCc3ccccn3)CC(NCc3ccccn3)C2)nc1 (centres unmarked) [Zn(II) complex of tachpyr]
cytotoxicity (in words) ([1]; MBT2 cells, 72 hours, MTT): not toxic

Compound: [Fe(tachpyr)]Cl2 [FE(II) complex of tachpyr]
cytotoxicity (in words) ([1]; MBT2 cells, 72 hours, MTT): not toxic

IC50 ([1]; Mus musculus, MBT2 cells, 72 hours, MTT, single experiment of FIG. 8, read-out: calculated IC50 from FIG. 8 data): 70 µM
IC50 ([1]; Mus musculus, MBT2 cells, 72 hours, MTT, tachpyr: average of four independent experiments ± standard error, read-out: IC50): 70 µM
Compound: CC(=O)N(O)CCCCCNC(=O)CCC(=O)N(O)CCCCCNC(=O)CCC(=O)N(O)CCCCCN [desferrioxamine, reference compound]
cytotoxicity (in words) ([1]; MBT2 cells, 72 hours, MTT): cytotoxic
IC50 [10]: 70 µM

Compound: c1ccc(-c2ccccn2)nc1 [bipy]
cytotoxic effects on tumor cells (in words) [11]: only weak cytotoxic effects

Compound: [Cl-].[Cl-].[Cu+2].c1ccc(CNC2CC(NCc3ccccn3)CC(NCc3ccccn3)C2)nc1 (centres unmarked) [CU(II) complex of tachpyr]
cytotoxicity (in words) ([1]; MBT2 cells, 72 hours, MTT): not toxic

Compound: [Mn+2].[O-][Cl+3]([O-])([O-])[O-].[O-][Cl+3]([O-])([O-])[O-].c1ccc(CNC2CC(NCc3ccccn3)CC(NCc3ccccn3)C2)nc1 (centres unmarked) [MN(II) complex of tachpyr]
cytotoxicity (in words) ([1]; MBT2 cells, 72 hours, MTT): toxic

Compound: C(=NC1CC(N=Cc2ccccn2)CC(N=Cc2ccccn2)C1)c1ccccn1 (stereo not drawn) [tachpyr-3H2, cis,cis-1,3,5-tris(pyridine-2-carboxaldimino)cyclohexane]
cytotoxicity (in words) [12]: no cytotoxicity

Compound: [Ca+2].[Cl-].[Cl-].c1ccc(CNC2CC(NCc3ccccn3)CC(NCc3ccccn3)C2)nc1 (centres unmarked) [Ca(II) complex of tachpyr]
cytotoxicity (in words) ([1]; MBT2 cells, 72 hours, MTT): toxic
